According to article PMC7707092, “Discovery and characterization of ORM‐11372, a novel inhibitor of the sodium‐calcium exchanger with positive inotropic activity” (British Journal of Pharmacology, 2020):

Target: hERG KV11.1 current (I hERG) (Homo sapiens, UniProt Q12809)
Assay: KV11.1 channel current (I hERG), manual patch‐clamp, CHO cells
Format: cell-based
Procedure: CHO cells stably expressing either hERG1a (KV11.1) channels (KCNH2; RRID:CVCL_H512) or human 5‐HT2B receptors were cultured at 37°C in a 5% CO2/95% air atmosphere in the Ham's Nutrient Mixture F‐12 (HAM F‐12) medium supplemented with 10% FBS (heat inactivated), 100 μg·ml^−1 of hygromycin B (Invitrogen), and 100 μg·ml^−1 of geneticin or 100 IU·ml^−1 of penicillin and 100 IU·ml^−1 of streptomycin, 25‐mM HEPES, 500 μg·ml^−1 of geneticin, and 250 μg·ml^−1 of Zeocin®. Adhered cells were detached using either Detachin® solution or trypsin and replated twice a week. HEK 293 (RRID:CVCL_0045) and IMR‐32 cells (CCL‐127; RRID:CVCL_0346) were cultured similarly but maintained instead in DMEM, supplemented with 10% FBS (heat inactivated), 100 IU·ml^−1 of penicillin and 100 IU·ml^−1 of streptomycin, and 25‐mM HEPES, and in the case of the IMR‐32 cell line, with minimum essential medium (MEM) non‐essential amino acids. IMR‐32 cells are derived from a human neuroblastoma and endogenously express L‐type (CaV1.x) calcium channel (Sher, Gotti, Pandiella, Madeddu, & Clementi, 1988). […]
Values from hERG‐expressing cells (n = 4) were recorded with the standard extracellular solution at the physiological temperature and a pipette solution containing (in mM) 130 KCl, 7 NaCl, 5 EGTA, 1 MgCl2, 5 Na2ATP, and 5 HEPES (pH was set to 7.2 with KOH; osmolarity was adjusted to 290 ± 3 mOsm). […]

Chain of hERG KV11.1 current (I hERG) (Q12809 whole entry): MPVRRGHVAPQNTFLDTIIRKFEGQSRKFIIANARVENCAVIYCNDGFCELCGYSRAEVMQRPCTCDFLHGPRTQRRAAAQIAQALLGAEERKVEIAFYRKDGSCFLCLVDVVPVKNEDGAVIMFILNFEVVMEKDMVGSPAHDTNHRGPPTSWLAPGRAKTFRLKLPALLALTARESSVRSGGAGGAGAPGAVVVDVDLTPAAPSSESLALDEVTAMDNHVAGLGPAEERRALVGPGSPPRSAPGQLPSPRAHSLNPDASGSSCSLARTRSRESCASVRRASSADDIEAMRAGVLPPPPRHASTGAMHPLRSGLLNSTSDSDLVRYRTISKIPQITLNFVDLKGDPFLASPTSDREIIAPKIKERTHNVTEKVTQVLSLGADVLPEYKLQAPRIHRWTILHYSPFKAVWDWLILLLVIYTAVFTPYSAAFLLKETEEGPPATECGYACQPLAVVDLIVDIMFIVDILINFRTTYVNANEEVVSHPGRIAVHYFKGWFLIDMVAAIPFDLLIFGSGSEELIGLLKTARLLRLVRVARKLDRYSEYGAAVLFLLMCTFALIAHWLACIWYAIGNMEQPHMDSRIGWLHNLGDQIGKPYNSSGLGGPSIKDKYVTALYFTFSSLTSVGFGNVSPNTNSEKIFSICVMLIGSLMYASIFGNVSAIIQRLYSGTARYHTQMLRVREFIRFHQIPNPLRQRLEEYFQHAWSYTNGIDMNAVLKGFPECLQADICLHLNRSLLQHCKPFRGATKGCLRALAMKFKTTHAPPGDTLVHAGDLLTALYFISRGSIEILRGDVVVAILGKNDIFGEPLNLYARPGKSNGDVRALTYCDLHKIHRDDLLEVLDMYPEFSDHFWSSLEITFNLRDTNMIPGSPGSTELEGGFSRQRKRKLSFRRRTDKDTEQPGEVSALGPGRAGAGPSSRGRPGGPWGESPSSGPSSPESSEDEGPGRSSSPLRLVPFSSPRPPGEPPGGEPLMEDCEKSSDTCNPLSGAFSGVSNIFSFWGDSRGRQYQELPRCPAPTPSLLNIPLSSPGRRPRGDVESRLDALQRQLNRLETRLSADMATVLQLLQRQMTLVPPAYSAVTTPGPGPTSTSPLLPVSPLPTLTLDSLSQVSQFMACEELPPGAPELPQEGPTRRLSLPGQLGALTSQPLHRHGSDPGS

Q: For `Nc1cccc(-c2ccc(CNc3ccc(F)cc3)o2)c1` [ORM‐11372], which “safety margin (ratio), I NCX over Kv11.1 current” value is on record?
A: The value was ≥ 2,000.

Q: And the IC50 (manual patch‐clamp, physiological temperature)?
A: The IC50 was 10 µM.
